# Test results published in patent US10087465B2, “Trans-acting elements for intracellular delivery of nucleic acid sequences” (The United States of America, as Represented by the …, priority 2014, dated 2018).
# “Also recorded” adds a separate entry of the source. {NH2} = C-terminal amide of the PNA; {F1} = fluorescein label
# Columns and labels:
# Type in all cases: cell-based
# [1] = system: HeLa pLuc 705 cells; test: Endocytic pathway assays; conditions: dTtaPS-mediated uptake of PNA oligomer 10, chlorpromazine 30 μM, nystatin 50 μM, EIPA 1 mM
# Description: Endocytic pathway assays: HeLa pLuc 705 cells were seeded in a 96-well plate and grown in 10% FBS-DMEM as described above. The cell culture was then pre-incubated for 30 min at 37° C. in the presence of chlorpromazine, nystatin or 5-(N-ethyl-N-isopropyl)amiloride (EIPA), the final concentration of which was 30 μM, 50 μM or 1 mM, respectively. A 2× solution of PNA oligomer 10:dTtaPS complex was added to the cells to provide an oligomer and dTtaPS final concentration of 1.0 μM and 2.0 μM, respectively. The cells were then incubated for an additional 30 min at 37° C., whereupon luciferase activity was measured as described above in the Luciferase assay protocol. Luminescence measurements were normalized to the amounts of protein present in the test samples and reported as percent luminescence remaining relative to that of the experiment performed in the absence of endocytic pathway inhibitors.
# [2] = system: HEK 293, HeLa, HeLa pLuc705, MCF7 and SK—N—SH live cells; test: Flow cytometry (FACS) analysis of cellular uptake of fluorescently-labeled PNA or PMO oligomers in live cells; conditions: for PS-dT8[3+] (dTtaPS)-mediated delivery of fluoresceinated PMO oligomers: PMO oligomer 1 μM, PS-dT8[3+] 2 μM, all cell lines, FIG. 17; for PS-dT8[3+] (dTtaPS)-mediated cellular internalization of fluoresceinated PNA oligomers: in the presence of PS-dT8[3+], oligomer 1 μM, all cell lines under study, FIG. 11
# Description: (§1) Complex formation between PNA or PMO oligomers and dTtaPS or dAtaPS: Appropriate amounts of PNA or PMO oligomers were diluted in serum-free OptiMEM™ (20 μl). dTtaPS or dAtaPS was added to the oligomer solution to achieve a final concentration that is twice that of the oligomer. After 30 min incubation at 37° C., the PNA or PMO oligomer: dTtaPS or dAtaPS complexes were stored at 4° C. for 15 minutes or until used. Stock solutions (2×) of the complexes were made by adding OptiMEM™ to appropriate volumes.
# Flow cytometry analysis of cellular uptake in live cells: The internalization of fluorescently-labeled PNA or PMO sequences (Table 1) in HEK 293, HeLa, MCF7 and SK—N—SH cells was assessed by flow cytometry. Cells were seeded in a 96-well plate (10^4 cells/well) and allowed to grow at 37° C. for 24 h in 10% FBS-MEM. The culture medium of each well was then replaced with fresh medium (100 μl) containing any of the fluorescently-labeled PNA or PMO sequences, the final concentration of which was 1 μM. After an incubation of 18 h at 37° C., the medium was removed from each well by suction and 0.25% Trypsin (50 μl) was added. Upon complete cell detachment, a solution (100 μl) of ice-cold 2% FBS in phosphate-buffered saline (PBS, pH 7.4) was added to each well. The cells were collected into tubes, to which was added 0.4% Trypan blue (50 μl) and 200 µM monensin (20 μl), and analyzed by fluorescence-activated cell sorting (FACS) using a BD FACScan™ flow cytometer. A total of 5000 events were counted and the results were reported as a percentage of the cells that have internalized the fluorescently-labeled oligomers.
# [3] = system: HeLa pLuc705 cells; test: Luciferase splice correction assay; conditions: for luciferase activity (splice correction) upon PS-dT8[3+] (dTtaPS)-assisted delivery of PNA oligomers: FIG. 12, 13, 15; for luciferase activity / internalization upon PS-dA8[3+] (dAtaPS)-mediated delivery of PNA oligomers: PS-dA8[3+] 2.0 μM, compared with PS-dT8[3+]:10 complex, FIG. 16
# Description: The efficiency of PS-dT8[3+] in the cellular uptake of polyA-tailed PNA oligomers was assessed through the luciferase splice correction assay in which the mutated intron 2 of the human β-globin gene has been inserted within the coding sequence of a luciferase reporter gene (pLuc705). The activation of a cryptic splice site in this intron leads to a defective luciferase enzyme. In the presence of a PNA oligomer complementary to the aberrant splice site, correct splicing is restored and results in an active luciferase. A concentration-dependence of splice correction activity by PS-dT8[3+]-mediated internalization of the PNA oligomer 10 in HeLa pLuc705 cells is shown in FIG. 12.
# as §1
# Luciferase assay protocol: HeLa pLuc 705 cells were seeded in a 96-well plate (2×10^4 cells/well) and allowed to grow at 37° C. for 18 h in 10% FBS-DMEM. The culture medium of each well was then replaced with either fresh serum-free or 20% serum-containing OptiMEM™ (50 μl) for experiments intended to be performed in serum-free or in 10% serum-containing media. A 2× solution of PNA or PMO oligomer:dTtaPS or dAtaPS complexes (50 μl) was added to the cells in order to achieve pre-determined complex concentrations, as indicated in the Figures. After a 4-hour incubation at 37° C., 20% FBS in OptiMEM™ (100 μl was added to serum-free experiments and cells were incubated for an additional 18 h at 37° C. The media was then removed by suction and the cells were mixed with a cell lysis reagent (50 μl) and agitated at ambient temperature for 10 minutes. The cell lysate (30 μl) was placed in a white 96-well plate and Bright-Glo™ reagent (20 μl) was added. Luciferase activity was measured using a microplate reader. For each well, luminescence was integrated over a period of 1 sec and recorded as relative light units (RLU). Luminescence measurements were normalized to the amount of protein present in the test sample.
# Appropriate amounts of PNA/PMO oligomers were diluted in OptiMEM™ (20 μL) to achieve the concentration of 1 μM or as indicated in the Figures. PS-dT8[3+] or PS-dAs[3+] was added to the above oligomer solutions. After a 30 min incubation at 37° C., the PNA/PMO oligomer:PS-dT8[3+] or PS-dA8[3+] complexes were removed and kept at 4° C. for 15 minutes or until used. Stock solutions of the complexes were made by adding OptiMEM™ to appropriate volumes.
# Luciferase Assay: Prior to performing experiments, HeLa pLuc 705 cells were seeded in a 96-well plate (2×10^4 cells/well) and allowed to grow at 37° C. for 18 h in 10% FBS DMEM. The culture medium of each well was then replaced with either fresh 50 μL serum free or 20% serum-containing OptiMEM™ for experiments intended to be performed in serum free or in 10% serum-containing media. A 2× solution of the PNA/PMO oligomer:PS-dT8[3+] or PS-dAs[3+] complexes (50 μL) was added to the cells in order to achieve a pre-determined concentration as indicated in the figures. After a 4-hour incubation at 37° C., 20% FBS in OptiMEM (100 μL) was added to serum free experiments and cells were incubated for an additional 18 h at 37° C. The media was then removed by suction and the cells were mixed with a cell lysis reagent (50 μL) and agitated at ambient temperature over a period of 10 minutes. The cell lysate (30 μL) was placed in white 96-well plate and Bright-Glow™ reagent (20 μL) was added. Luciferase activity was measured using a microplate reader. […]
compound,measurement,setting,value
"CCN(c1nc(N)c(C(=O)N=C(N)N)nc1Cl)C(C)C [EIPA, 5-(N-ethyl-N-isopropyl)amiloride]",inhibition of luciferase production by endocytic pathway inhibitor,[1],~95%
"C[C@@H]1[C@H](O)[C@@H](C)/C=C/C=C/CC/C=C/C=C/C=C/C=C/C(O[C@H]2O[C@H](C)[C@@H](O)[C@H](N)[C@@H]2O)CC2O[C@](O)(CC(O)C(O)CCC(O)CC(O)CC(O)CC(=O)O[C@H]1C)CC(O)C2C(=O)O (stereo partly shown) [Nystatin, nystatin]",inhibition of luciferase production by endocytic pathway inhibitor,[1],did not inhibit
CN(C)CCCN1c2ccccc2Sc2ccc(Cl)cc21 [chlorpromazine],inhibition at 30 µM,"[1]; Homo sapiens, HeLa, read-out: inhibition of luciferase production by endocytic pathway inhibitor",~40%
"PMO oligomer 19: commercial PMO, GTGGCCGTTTACGTCGCC-AAAAAA-F1, SEQ ID NO. 13 (GTGGCCGTTTACGTCGCCAAAAAA; PMO, F1 label, chemistry not fully specified)",PS-dT8[3+] (dTtaPS)-mediated delivery of fluoresceinated PMO oligomers,[2]; listed as 19,confirmed the dTtaPS-assisted delivery
"PMO oligomer 20: commercial PMO, CCTCTTACCTCAGTTACA-F1, SEQ ID NO. 14 (all phosphorodiamidate morpholino (PMO), 3' {F1})",PS-dT8[3+] (dTtaPS)-mediated delivery of fluoresceinated PMO oligomers,[2],reduced to that of the medium
"PMO oligomer 24: commercial PMO, CCTCTTACCTCAGTTACA-AATAAA, SEQ ID NO. 18 (CCTCTTACCTCAGTTACAAATAAA; all phosphorodiamidate morpholino (PMO))",luciferase activity upon PS-dT8[3+] (dTtaPS)-assisted internalization of PMO oligomers,"[3]; PMO oligomer 1 μM, PS-dT8[3+] 2 μM, relative to PMO oligomer 21, FIG. 18, listed as 24",did not significantly decrease; also recorded: did not significantly affect
"PNA oligomer 8: commercial PNA, F1-GTGGCCGTTTACGTCGCC-AAAAAA-NH2, SEQ ID NO. 2 (GTGGCCGTTTACGTCGCCAAAAAA; PNA, F1 label, C-amide, chemistry not fully specified)",PS-dT8[3+] (dTtaPS)-mediated cellular internalization of fluoresceinated PNA oligomers,[2],efficiently internalized
"PNA oligomer 9: commercial PNA, F1-CCTCTTACCTCAGTTACA-NH2, SEQ ID NO. 3 (all peptide nucleic acid (PNA), 5' {F1}; PNA with C-terminal amide, further chemistry not fully specified)",PS-dT8[3+] (dTtaPS)-mediated cellular internalization of fluoresceinated PNA oligomers,[2],not significantly internalized
"PNA oligomer 11: commercial PNA, negative control, H-GTGGCCGTTTACGTCGCC-AAAAAA-NH2, SEQ ID NO. 5 (GTGGCCGTTTACGTCGCCAAAAAA; all peptide nucleic acid (PNA); PNA with N-terminal H and C-terminal amide, further chemistry not fully specified)",luciferase activity (splice correction) upon PS-dT8[3+] (dTtaPS)-assisted delivery of PNA oligomers,"[3]; PS-dT8[3+] 2 μM, listed as 11","failed, as expected for a negative control, to restore luciferase activity"
"PNA oligomer 12: commercial PNA, H-CCTCTTACCTCAGTTACA-NH2, SEQ ID NO. 6 (all peptide nucleic acid (PNA); PNA with N-terminal H and C-terminal amide, further chemistry not fully specified)",luciferase activity (splice correction) upon PS-dT8[3+] (dTtaPS)-assisted delivery of PNA oligomers,[3]; PS-dT8[3+] 2 μM,did not restore luciferase activity
"PNA oligomer 15: commercial PNA, H-CCTCTTACCTCAGTTACA-TTTTTT-NH2, SEQ ID NO. 9 (CCTCTTACCTCAGTTACATTTTTT; all peptide nucleic acid (PNA); PNA with N-terminal H and C-terminal amide, further chemistry not fully specified)",luciferase activity / internalization upon PS-dA8[3+] (dAtaPS)-mediated delivery of PNA oligomers,[3]; listed as 15,about half the level of luciferase activity
same,luciferase activity (splice correction) upon PS-dT8[3+] (dTtaPS)-assisted delivery of PNA oligomers,"[3]; PS-dT8[3+] 2 μM, listed as 15",did not result in significant production of luciferase activity; also recorded: did not lead to the production of luciferase activity
"PNA oligomer 16: commercial PNA, H-CCTCTTACCTCAGTTACA-CCCCCC-NH2, SEQ ID NO. 10 (CCTCTTACCTCAGTTACACCCCCC; all peptide nucleic acid (PNA), 3' {NH2}; further chemistry not fully specified)",luciferase activity / internalization upon PS-dA8[3+] (dAtaPS)-mediated delivery of PNA oligomers,[3]; listed as 16,failed to recognize and internalize
same,luciferase activity (splice correction) upon PS-dT8[3+] (dTtaPS)-assisted delivery of PNA oligomers,"[3]; PS-dT8[3+] 2 μM, listed as 16",did not result in significant production of luciferase activity; also recorded: did not lead to the production of luciferase activity
"PNA oligomer 17: commercial PNA, H-AAAAAA-CCTCTTACCTCAGTTACA-NH2, SEQ ID NO. 11 (AAAAAACCTCTTACCTCAGTTACA; all peptide nucleic acid (PNA); PNA with N-terminal H and C-terminal amide, further chemistry not fully specified)",luciferase activity / internalization upon PS-dA8[3+] (dAtaPS)-mediated delivery of PNA oligomers,[3]; listed as 17,failed to recognize and internalize
same,luciferase activity (splice correction) upon PS-dT8[3+] (dTtaPS)-assisted delivery of PNA oligomers,[3]; PS-dT8[3+] 2 μM,did not significantly affect
